This note sets out measurements from patent publication US20090221523A1 (priority 2005, published 2009).

The subject of data set [1] is CV strain TK:GFP lacZ (TK−). Nature of the data set: microbe, parasite or virus in culture. The data set is classed as cell-based. As to conditions: Cowpox virus, Vero, read-out: CV TK:GFP lacZ EC50 (TK−).
In data set [2] the test system is HSV-1 strain F. Briefly: microbe, parasite or virus in culture. The data set is classed as cell-based, herpes simplex virus. Particulars: Human alphaherpesvirus 1, HFF.
In data set [3] the test system is CV strain delta crmA (TK+). Nature of the data set: microbe, parasite or virus in culture. Particulars: Cowpox virus, Vero, read-out: CV delta crmA EC50 (TK+). The data set is classed as cell-based.
In data set [4] the test system is HSV-1 TK− strain DM2.1. Briefly: microbe, parasite or virus in culture. The data set is classed as cell-based, herpes simplex virus. Particulars: Human alphaherpesvirus 1, HFF.
A short description of data set [5]: in vitro. As to conditions: human.
The subject of data set [6] is cowpox Brighton Strain. The arrangement: species or system BALB/c mice. As to conditions: mouse, in vivo.
Data set [7] relates to WR strain of VV. Briefly: microbe, parasite or virus in culture. It counts as cell-based. Particulars: Orthopoxvirus vaccinia, HFF, 24 h, read-out: EC50 for inhibiting VV DNA synthesis.
Data set [8] deals with vaccinia WR strain. The arrangement: species or system BALB/c mice. As to conditions: mouse, in vivo.
For data set [9], the target named is purified VV TK (Vaccinia virus, UniProt P68564).
Data set [10] relates to VV strain WR. Also noted: species or system BALB/c mice. As to conditions: mouse, in vivo, ip, 15 mg/kg.
Data set [11] concerns ΔcrmA (TK+) CV strain. Nature of the data set: microbe, parasite or virus in culture. It counts as cell-based. As to conditions: Cowpox virus, HFF, read-out: EC50 CV (Δcrm lacZ) TK+.
Data set [12] has as its system cowpox virus (Brighton strain). Briefly: microbe, parasite or virus in culture. The data set is classed as cell-based. As to conditions: HFF, read-out: CV (Brighton) EC50.
Data set [13] relates to TK:GFP lacZ (TK−) CV strain. Nature of the data set: microbe, parasite or virus in culture. The data set is classed as cell-based. Particulars: Cowpox virus, HFF, read-out: EC50 CV (TK:gpf lacZ).
In data set [14] the test system is HFF cells. Nature of the data set: cells. It counts as cell-based. As to conditions: Homo sapiens, 72 h, read-out: IC50, 50% inhibition of cell proliferation.
Data set [15] relates to vaccinia IHD strain. Also noted: species or system BALB/c mice. Particulars: mouse, in vivo.
Data set [16] deals with HFF cells. As to conditions: human.
The test system of data set [17] is vaccinia (HID strain). The arrangement: species or system mice; Mean Lung Virus Titer: unit not given here. Particulars: mouse, in vivo.
For data set [18], the system named is vaccinia virus (Copenhagen Strain). Nature of the data set: microbe, parasite or virus in culture. It counts as cell-based.
Data set [19] has as its system cowpox Brighton Strain. The arrangement: species or system BALB/c mice. As to conditions: mouse, in vivo. This is another data set of the same source.
For data set [20], the system named is vaccinia (WR strain). Also noted: species or system mice; Mean Lung Virus Titer: unit not given here. As to conditions: mouse, in vivo.
The subject of data set [21] is Cc1cn([C@H]2C[C@H](O)[C@@H](CO)O2)c(=O)[nH]c1=O. Nature of the data set: purified protein, by the assay type.
Data set [22] has as its system cowpox virus (Brighton strain). Nature of the data set: microbe, parasite or virus in culture. The data set is classed as cell-based. Particulars: HFF, read-out: Cowpox (Brighton) EC50.
Data set [23] relates to vaccinia virus (Copenhagen Strain). Nature of the data set: microbe, parasite or virus in culture. Particulars: Orthopoxvirus vaccinia, HFF, read-out: Vaccinia (Copenhagen) EC50. It counts as cell-based.
The test system of data set [24] is HSV-1 strain E377. The arrangement: species or system BALB/c mice. As to conditions: mouse, in vivo.
Setting [25] is: read-out: HSV-1 DM2.1 EC50 (TK−).
[26] abbreviates: read-out: EC50 HSV-1 (DM2.1) TK−.

In brackets after ≈: the same amount, converted by molar mass. Read-outs that look alike come from different tables or passages of the source. Marks after values point to notes of the source that are not given here. Bounds are passed on as bounds.

`Nc1ncnc2c1ncn2[C@@H]1O[C@H](CO)[C@@H](O)[C@@H]1O` [AraA, vidarabine]: the EC50 was determined as 0.78 ± 0.2 µg/mL (≈ 2.92 µM) in data set [1], 6.4 ± 3.4 µg/mL (≈ 23.9 µM) in [2] (read-out: HSV-1 F EC50 (TK+)), 0.91 ± 0.005 µg/mL (≈ 3.41 µM) in data set [3] and 4.9 µg/mL (≈ 18.3 µM) in [4] (setting [25]). In data set [5], this compound showed a CC50 of over 100 µg/mL.
The Vmax is the top rate of the reaction or transport when substrate is in excess. `Nc1ccn(C[C@@H](CO)OCP(=O)(O)O)c(=O)n1` [CDV, cidofovir]: the “Number of Survivors” value in data set [6] and in data set [8] was 10/10 throughout. The EC50 in data set [7] worked out at 3 µg/mL (≈ 10.7 µM); in [11], 3.5 ± 3.3 µg/mL (≈ 12.5 µM); in data set [1] it was 3.3 ± 2.3 µg/mL (≈ 11.8 µM); in data set [2] (read-out: EC50 HSV-1 (F) TK+), 1.5 ± 1.1 µg/mL (≈ 5.37 µM); in [2] (read-out: HSV-1 F EC50 (TK+)) it was 1.5 ± 1.1 µg/mL (≈ 5.37 µM); in data set [12], 4.4 ± 0.6 µg/mL (≈ 15.8 µM). Moreover, the EC50 in [13] came out at 4.2 ± 3.9 µg/mL (≈ 15 µM); in data set [3] it was 16.1 ± 0.3 µg/mL (≈ 57.7 µM); in [18] (Orthopoxvirus vaccinia, HFF, read-out: VV (Copenhagen) EC50) it was 3 µg/mL (≈ 10.7 µM); in data set [4] (setting [26]) it was 1.5 ± 1.4 µg/mL (≈ 5.37 µM); in data set [4] (setting [25]), 1.5 ± 1.4 µg/mL (≈ 5.37 µM). The Vmax in data set [9] is under 0.025 µM/min/mg. For the same compound, the Mortality % in data set [10] turned out to be 0%; in [15] (ip, 15 mg/kg), 0%; in [19] (ip, 15 mg/kg), 0%. The “Mortality No. dead/total no.” value in [10] is 0/15; in [15] (ip, 15 mg/kg) it was 0/15; in data set [19] (ip, 15 mg/kg), 0/15. In data set [14], the IC50 was determined as 20 ± 7 µg/mL (≈ 71.6 µM). The “Mortality Number” value in data set [15] and in [19] was 0/15 each time. Besides, the “Mortality Percent” value in data set [15] and in data set [19] was 0% each time. Besides, the CC50 in [16] was over 100 ± 0 µg/mL; in data set [5], over 100 µg/mL. In data set [16], the “Toxicity CC50” value was over 100 ± 0 µg/mL. In addition, the “MDD, mean day of death” value in data set [17] is >21*** day. Besides, the entries for the “Mean Lung Virus Titer” value in data set [17] and in data set [20] were 4.7 ± 0.6 and 7.0 ± 0.2, respectively. Also, the results for the Survivors/Total in data set [17] and in data set [20] were 10/10*** and 9/10***, respectively. Further, the “VV (Copenhagen) EC50” value in [18] turned out to be 3.3 ± 0.3 µg/mL. The “MDD (mean day of death of mice that died prior to day 21)” value in [20] was found to be 8.0 days.
By Km is commonly meant the substrate concentration at which the rate is half of its maximum. “purified VV TK (Vaccinia virus Copenhagen)”: in data set [21], the Km amounted to 49 ± 7.6 µM and the Vmax is 289 µM/min/mg.
As to `O=c1[nH]c(=O)n([C@H]2C[C@H](O)[C@@]3(CO)CC23)cc1Br` (stereo partly drawn) [N-MCBrU], the figures for the EC50 in data set [22] and in data set [23] were 11.5 µg/mL (≈ 36.3 µM) and 0.6 µg/mL (≈ 1.89 µM), respectively. The compound further had a CC50 in data set [5] of over 100 µg/mL.
Take `O=c1[nH]c(=O)n([C@H]2C[C@H](O)[C@@H](CO)O2)cc1C(F)(F)F` [TFT, trifluridine]: the EC50 in data set [1] was 0.72 ± 0.28 µg/mL (≈ 2.43 µM); in data set [2] (read-out: HSV-1 F EC50 (TK+)) it was 1 ± 0.2 µg/mL (≈ 3.38 µM); in data set [3] it was 0.42 ± 0.33 µg/mL (≈ 1.42 µM); in data set [4] (setting [25]), 1.1 ± 0.3 µg/mL (≈ 3.71 µM). The CC50 in data set [5] is over 100 µg/mL.
For `O=c1[nH]c(=O)n([C@H]2C[C@H](O)[C@@H](CO)O2)cc1Br` [BrdU, 5-bromodeoxyuridine] the same measures were 19 µg/mL (≈ 61.9 µM), 1.6 ± 0.2 µg/mL (≈ 5.21 µM), 0.37 µg/mL (≈ 1.2 µM), 39 ± 6.3 µg/mL (≈ 127 µM) and over 100 µg/mL.
Consider `Nc1nc(=O)n([C@@H]2O[C@H](CO)[C@@H](O)[C@@H]2F)cc1I` [FIAC, fiacitabine], for which, in [9], the Vmax is under 0.14 µM/min/mg. The EC50 turned out to be 9.2 ± 3.7 µg/mL (≈ 24.8 µM) in data set [1], 0.06 ± 0.02 µg/mL (≈ 0.162 µM) in data set [2] (read-out: HSV-1 F EC50 (TK+)), 18 ± 0.25 µg/mL (≈ 48.5 µM) in [3] and 8 ± 1.3 µg/mL (≈ 21.6 µM) in data set [4] (setting [25]). The CC50 in data set [5] is over 100 µg/mL.
As for `O=c1[nH]c(=O)n([C@@H]2O[C@H](CO)[C@@H](O)[C@@H]2F)cc1I` [FIAU, fialuridine], the EC50 turned out to be 19 ± 6.7 µg/mL (≈ 51.1 µM) in data set [1], 0.05 ± 0.03 µg/mL (≈ 0.134 µM) in data set [2] (read-out: HSV-1 F EC50 (TK+)), 14 ± 7 µg/mL (≈ 37.6 µM) in data set [3] and 3.9 ± 3.3 µg/mL (≈ 10.5 µM) in [4] (setting [25]). Moreover, in [5], the CC50 was over 100 µg/mL.
For `O=c1[nH]c(=O)n([C@H]2C[C@H](O)[C@@H](CO)O2)cc1/C=C/Br` [BVDU, brivudin] the same measures were over 30 µg/mL, 0.09 µg/mL (≈ 0.27 µM), over 30 µg/mL, 100 µg/mL (≈ 300 µM) and over 100 µg/mL.
For `O=c1[nH]c(=O)n([C@@H]2O[C@H](CO)[C@@H](O)[C@@H]2O)cc1/C=C/Br` [BVAU, sorivudine] the same measures were over 30 µg/mL, 0.05 ± 0.02 µg/mL (≈ 0.143 µM), over 30 µg/mL, over 100 µg/mL and over 100 µg/mL.
For `O=c1[nH]c(=O)n([C@H]2C[C@H](O)[C@@H](CO)O2)cc1F` [FdU, 5-fluorodeoxyuridine] the same measures were 0.37 µg/mL (≈ 1.5 µM), 2.5 ± 1.7 µg/mL (≈ 10.2 µM), 0.37 µg/mL (≈ 1.5 µM), 4.5 ± 3.3 µg/mL (≈ 18.3 µM) and 60 ± 0.7 µg/mL (≈ 244 µM).
Regarding `O=c1[nH]c(=O)n([C@H]2C[C@H](O)[C@@H](CO)O2)cc1I` [IDU, idoxuridine], the EC50 in [11] amounted to 0.4 ± 0.18 µg/mL (≈ 1.13 µM); in data set [1], 16 ± 9.3 µg/mL (≈ 45.2 µM); in data set [2] (read-out: EC50 HSV-1 (F) TK+), 2.1 ± 0.1 µg/mL (≈ 5.93 µM); in [2] (read-out: HSV-1 F EC50 (TK+)), 2.1 ± 0.1 µg/mL (≈ 5.93 µM); in data set [13], 22 ± 9.3 µg/mL (≈ 62.1 µM); in [3], 2.2 ± 0.87 µg/mL (≈ 6.21 µM). The EC50 in data set [4] (setting [26]) and in [4] (setting [25]) was 54 ± 8.1 µg/mL (≈ 152 µM) throughout. In data set [5], the CC50 was over 100 µg/mL.
On to `Nc1nc2c(ncn2COCCO)c(=O)[nH]1` [ACV, acyclovir], for which the EC50 in data set [1] is over 30 µg/mL; in [2] (read-out: EC50 HSV-1 (F) TK+) it was 0.3 µg/mL (≈ 1.33 µM); in [2] (read-out: HSV-1 F EC50 (TK+)) it was 0.35 ± 0.2 µg/mL (≈ 1.55 µM); in data set [3] it was over 30 µg/mL; in data set [4] (setting [26]) it was over 100 µg/mL; in [4] (setting [25]) it was over 100 µg/mL. The Mortality % in data set [24] is 0%. In addition, the “Mortality No. dead/total no.” value in data set [24] is 0/15. The CC50 in [5] was over 100 µg/mL.
